Reference: patent US11246907B2, “Immunosuppressive agents and their use in therapy” (Norwegian University of Science and Technology, priority 2013, dated 2022)

Key:
monocytes = test: Annexin staining / flow cytometry of monocytes (apoptosis); assay type: cell-based, human; conditions: 4 hours, monocytes
Method: Annexin staining was used to determine cell viability and cells were counted using flow cytometry.
Peripheral blood […] were isolated from A+ buffy coats (Blood Bank, St. Olav's University Hospital) by density gradient centrifugation (Lymphoprep; Axis-Shield PoC, Oslo, Norway). The adherent cell fraction after 90 minute incubation, termed monocytes, were washed twice with HANKS and maintained in RPMI 1640 supplemented with 2 mM glutamine, […] gentamicin and 25% heat-inactivated HS over-night. Cells were cultured at 37° C. in a humidified atmosphere of 5% CO2 over-night. […] An R11 peptide and no peptide treatment were used as controls. After 4 hours, the cells were washed once in PBS, and re-suspended in buffer as recommended by the manufacturer of the Annexin V-Pacific Blue kit (Invitrogen). Cells were identified monocytes according to size (FSC) and granularity (SSC).

[1] = system: peripheral blood monocytes; test: Multiplex (27-plex) cytokine secretion of TLR-ligand stimulated peripheral blood monocytes; assay type: cell-based, human; conditions: LPS or polyIC, 4 h; ATX-101 4 μM, SB203580 10 μM, LY294002 5 and 10 μM, SC66 1 μg/ml
Method: Measured cytokine levels were normalized to cytokine levels from monocytes stimulated with TLR ligand alone. A two fold or higher increase in cytokine level after TLR stimulation was defined as cytokine induction. […] Isolated monocytes were stimulated with 10 ng/ml LPS and 40 μg/ml polyIC alone and in combination with 4 μM ATX-101 for 4 h. […] DRAQS was used for nuclear staining. Bar, 5 μm.
Data is from one representative donor out of three; and (B-E) show multiplex analysis of cytokine levels produced by peripheral blood monocytes stimulated with 10 ng/ml LPS (B and D, same donor) and 40 μg/ml polyIC (C and E, same donor) after 4 h. (B and C) Stimulated-monocytes were treated with 4 μM ATX-101, 10 μM SB203580 (p38 MAPK inhibitor), and combination of ATX-101 and SB203580. (D and E) Stimulated-monocytes were treated with 4 μM ATX-101, 5 and 10 μM LY294002 (PI3K class I inhibitor), and combination of ATX-101 and LY294002. Measured cytokine levels were normalized to cytokine levels from monocytes stimulated with TLR ligand alone. A two fold or higher increase in cytokine level after TLR stimulation was defined as cytokine induction. # Value is too low to be visible in the column diagram; ? cytokine measurement was out of range. Data is from representative experiments out of two.
(§1) Measured cytokine levels were normalized to cytokine levels from monocytes stimulated with TLR ligand alone. A two fold or higher increase in cytokine level after TLR stimulation was defined as cytokine induction. ? Cytokine measurement was out of range. Data is from one experiment out of two.
Measured cytokine levels were normalized to cytokine levels from monocytes stimulated with TLR ligand alone. Data is from one donor. We obtained similar results for IL-6 secretion in two other donors.
as §1, with “# Value is too low to be visible in the column diagram; 0” for “?”
Peripheral blood mononuclear cells were isolated from A+ buffy coats (Blood Bank, St. Olav's University Hospital, Trondheim, Norway) by density gradient centrifugation (Lymphoprep; Axis-Shield PoC, Oslo, Norway). Mononucleated cells were seeded at 4 million cells/ml in serum-free RPMI 1640 supplemented with glutamine and gentamicin. After 60-90 min the adherent cell population was washed before cultured in medium with 10% heat-inactivated human serum (Blood Bank, St. Olav's University Hospital). ATX-101 (4 μM [Innovagen, Lund, Sweden]), ATX-A (4 μM, [Innovagen]) (ATX-A is represented in SEQ ID NO: 1206 and contains the motif RALVK (SEQ ID NO: 1207), which is not capable of interacting with PCNA), p38 inhibitor (SB203580, 10 μM, [Sigma-Aldrich]), PI3K inhibitor (LY294002, 5 and 10 μM, [Sigma-Aldrich]), and Akt inhibitor (Akt inhibitor XVIII SC66, 1 μg/ml, [Sigma-Aldrich]) were added in serum-free medium and incubated for 5 min before LPS (10 ng/ml, [Sigma-Aldrich]), polylC (40 μg/ml, [GE Healthcare, Little Chalfont, UK]), PAM3Cys (10 ng/ml, [Invivogen, San Diego, Calif., USA]) or R848 (10 μg/ml, [Invivogen]) were added in serum-containing medium. The cells were incubated for 4 h before the supernatants were harvested and frozen prior to further cytokine analysis by the 27-plex assay (Bio-Plex ProTM Human cytokine 27-plex assay).

Compound	Percentage of annexin positive cells (monocytes; 5μM peptide treatment) [%]	Percentage of annexin positive cells (monocytes; 10 μM peptide treatment) [%]	cytokine secretion from stimulated monocytes, single agent [1]
N=C(N)NCCC[C@H](NC(=O)[C@H](CCCNC(=N)N)NC(=O)[C@H](CCCNC(=N)N)NC(=O)[C@H](CCCNC(=N)N)NC(=O)[C@H](CCCNC(=N)N)NC(=O)[C@H](CCCNC(=N)N)NC(=O)[C@H](CCCNC(=N)N)NC(=O)[C@H](CCCNC(=N)N)NC(=O)[C@H](CCCNC(=N)N)NC(=O)[C@H](CCCNC(=N)N)NC(=O)[C@@H](N)CCCNC(=N)N)C(=O)O [R11, reference compound]	55	56	
CC[C@H](C)[C@H](NC(=O)[C@H](CCCCN)NC(=O)[C@H](CCCNC(=N)N)NC(=O)[C@H](CCCCN)NC(=O)[C@H](CCCCN)NC(=O)[C@H](CCCCN)NC(=O)[C@H](Cc1c[nH]c2ccccc12)NC(=O)[C@@H]1CCCN1C(=O)[C@@H](NC(=O)[C@H](CC(C)C)NC(=O)[C@H](Cc1c[nH]c2ccccc12)NC(=O)[C@H](CCCNC(=N)N)NC(=O)[C@H](CC(=O)O)NC(=O)[C@@H](N)CCSC)C(C)C)C(=O)N[C@@H](CCCNC(=N)N)C(=O)N[C@@H](CCCNC(=N)N)C(=O)N[C@@H](CCCNC(=N)N)C(=O)N[C@@H](CCCNC(=N)N)C(=O)N[C@@H](CCCNC(=N)N)C(=O)N[C@@H](CCCNC(=N)N)C(=O)N[C@@H](CCCNC(=N)N)C(=O)N[C@@H](CCCNC(=N)N)C(=O)N[C@@H](CCCNC(=N)N)C(=O)N[C@@H](CCCNC(=N)N)C(=O)N[C@@H](CCCNC(=N)N)C(=O)O [ATX-P]	65	81	
C[S+]([O-])c1ccc(-c2nc(-c3ccncc3)c(-c3ccc(F)cc3)[nH]2)cc1 (stereo not drawn) [SB203580, reference compound]			reduced cytokine secretion
O=C1/C(=C/c2ccncc2)CCC/C1=C\c1ccncc1 [SC66, reference compound]			reduces cytokine secretion of monocytes to or below the basal levels
